By IC50 is commonly meant the concentration that inhibits the measured activity by half. The low end stands for greater potency, the high end for weaker potency.

Molecules are shown by their SMILES.

In one data set the target is T1, CYP2C8 (Homo sapiens, UniProt P10632).
T1 construct: tissue Research Institute for Liver Diseases (Shanghai); host or cells: 50-donor pooled human liver microsomes
T1 sequence (P10632 1-490): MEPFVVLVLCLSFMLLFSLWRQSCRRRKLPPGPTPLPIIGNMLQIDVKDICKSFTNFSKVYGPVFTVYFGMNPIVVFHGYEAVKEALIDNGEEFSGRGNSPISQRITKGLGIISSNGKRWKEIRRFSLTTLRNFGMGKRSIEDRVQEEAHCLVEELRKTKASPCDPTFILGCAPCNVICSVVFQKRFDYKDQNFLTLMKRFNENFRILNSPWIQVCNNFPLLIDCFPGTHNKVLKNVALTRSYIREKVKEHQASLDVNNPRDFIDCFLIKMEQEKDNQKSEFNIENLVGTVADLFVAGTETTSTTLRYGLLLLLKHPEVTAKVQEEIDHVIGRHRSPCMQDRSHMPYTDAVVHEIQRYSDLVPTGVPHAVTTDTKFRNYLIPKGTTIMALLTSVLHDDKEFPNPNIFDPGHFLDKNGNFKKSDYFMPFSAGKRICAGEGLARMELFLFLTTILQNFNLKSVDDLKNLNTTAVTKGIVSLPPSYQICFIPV
The experiment in a line: PTX metabolism in human liver microsomes: 6α-OHP formation. It counts as in vitro ADME. The following applies: HLM. The method, then:
Figure 7 Mechanistic study of FM04 to increase the oral PTX absorption. (A) transepithelial permeability of PTX in Caco-2 transwell assay. When confluent monolayer of Caco2 cells was formed on the transwell, the permeability of PTX (10 μM) was studied with or without FM04 (10 μM). For apical to basolateral transport (A to B), compound was added at the apical side (donor) and samples of the medium collected at the basal side (receiver) at 0, 20, 40, 60, 80, 100 and 120 min and vice versa for basal to apical transport (B to A). The PTX level was determined using UPLC-MS/MS. The relative % of PTX was presented as mean ± standard error of mean. N = 2–3 independent experiments. Impact of FM04 on PTX metabolism. […] After incubation, the levels of PTX, metabolites 6α-hydroxpaclitaxel (6α-OHP) and p3′-hydroxpaclitaxel (p3-OHP) were determined by HPLC-MS/MS. (B) changes in PTX. (C) changes in 6α-OHP. (D) changes in p3-OHP. […]
Drug solutions of PTX and FM04 were prepared in methanol. […] PTX and PTX metabolites were immediately analyzed by UPLC-MS/MS on the same day.
[^13C6]-paclitaxel (CAS: 379688-61-6) was the internal standard (IS) and purchased from Alsachim. Fifteen microliters of 10 μg/mL internal standard (IS) was added to all samples and calibration standards for quantification. […] PTX and both metabolites were semi-quantified base on the peak area ratio of the analyte/internal standard.

Data set [1] can be described thus: Cytotoxicity assay (MTS, 3 days), L929. The following applies: L929 fibroblast cells; mouse fibroblast cell line. It counts as cell-based. Here is the method: (§1) To each well of 96-well plate, 10,000 cells of LCC6, LCC6MDR or L929 were incubated with different concentrations of FM04 (0, 0.4, 1.2, 3.7, 11, 33 and 100 μM). The final volume in each well of 96-well plate was 100 μL and the plate was incubated for 3 days at 37 °C. The cell viability was determined using MTS assay as reported previously.

For another data set, the system named is LCC6MDR. The experiment in a line: Cytotoxicity assay (MTS, 3 days), LCC6MDR. It is filed as cell-based, human. The following applies: at 61 nM to 153 nM. The method, then: as §1
Data set [2] can be described thus: Cytotoxicity assay (MTS, 3 days), LCC6MDR. It counts as cell-based, human. The following applies: human, LCC6MDR cells. Here is the method: as §1
For a further data set, the target named is T2, BCRP (Homo sapiens, UniProt Q9UNQ0).
T2 construct: expressed in transfected cells; host or cells: HEK293/R2
T2 sequence (Q9UNQ0 1-655): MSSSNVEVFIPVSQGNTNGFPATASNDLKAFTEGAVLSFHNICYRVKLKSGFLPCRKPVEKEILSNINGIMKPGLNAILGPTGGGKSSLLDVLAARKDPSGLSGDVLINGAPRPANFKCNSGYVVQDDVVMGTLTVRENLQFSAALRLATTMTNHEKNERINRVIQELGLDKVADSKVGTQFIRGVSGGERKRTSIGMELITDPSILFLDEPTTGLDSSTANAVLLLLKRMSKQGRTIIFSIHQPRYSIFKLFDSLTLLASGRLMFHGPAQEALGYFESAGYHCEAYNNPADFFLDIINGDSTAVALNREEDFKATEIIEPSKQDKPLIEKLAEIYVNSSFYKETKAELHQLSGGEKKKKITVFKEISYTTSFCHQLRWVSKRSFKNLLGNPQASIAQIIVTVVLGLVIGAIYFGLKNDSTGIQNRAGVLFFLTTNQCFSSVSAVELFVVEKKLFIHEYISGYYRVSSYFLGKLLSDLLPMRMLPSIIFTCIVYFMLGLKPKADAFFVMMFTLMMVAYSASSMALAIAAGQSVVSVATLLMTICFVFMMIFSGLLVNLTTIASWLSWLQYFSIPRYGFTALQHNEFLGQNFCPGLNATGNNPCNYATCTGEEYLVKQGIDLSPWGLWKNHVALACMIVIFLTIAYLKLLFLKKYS
The experiment in a line: BCRP-modulating activity in HEK293/R2 cells (MTS). It is filed as cell-based. The following applies: 1 μM, HEK293/R2. Here is the method: The final volume in each well of the 96-well plate was 200 μL. The plate was then incubated for 5 days at 37 °C. The cell viability was determined using an MTS assay as reported previously.

`O=c1cc(-c2ccc(OCCOCCNCc3ccccc3)cc2)oc2ccccc12` [FM04, 2-(4-(2-(2-(benzylamino)ethoxy)ethoxy)phenyl)-4H-chromen-4-one]: the entries for the “decrease of the level of 6α-OHP” value at CYP2C8 (FM04 10 μM) and on CYP2C8 (FM04 20 μM) were 44% and 48%, respectively. In addition, the IC50 at 3 days amounted to 33 µM in data set [1] and 5.7 ± 1.5 µM in data set [2]. Also, the “cytotoxicity of FM04 alone towards LCC6MDR cells” value in the data set with LCC6MDR is on record as “did not exhibit cytotoxicity”. Besides, on BCRP, the “reversal of BCRP-mediated topotecan resistance” value is “did not reverse BCRP-mediated topotecan resistance”.

The record behind these values is PMC9739180, “Discovery of a Flavonoid FM04 as a Potent Inhibitor to Reverse P-Glycoprotein-Mediated Drug Resistance in Xenografts and Improve Oral Bioavailability of Paclitaxel” (International Journal of Molecular Sciences, 2022).
